Calls of active or inactive are those of the source. The rule behind the calls is not given here.
Experiments:
[1] = Inhibition of PP2A (unknown origin)
[2] = Aqueous stability of compound assessed as compound remaining measured at 240 mins by HPLC assay; format: physicochemical; conditions: aqueous solution, read-out: Stability
U-87 MG [3] = test: Induction of apoptosis in human U-87 MG cells assessed as S phase cells at 25 uM incubated for 24 hrs in presence of TMZ by propidium iodide staining based flow cytometry analysis (reference value: 29.4%); format: functional, U-87MG ATCC
U-87 MG [4] = test: Induction of apoptosis in human U-87 MG cells assessed as S phase cells at 25 uM incubated for 24 hrs by propidium iodide staining based flow cytometry analysis (reference value: 29.4%); format: functional, U-87MG ATCC
U-87 MG [5] = test: Induction of apoptosis in human U-87 MG cells assessed as G0/G1 phase cells at 25 uM incubated for 24 hrs in presence of TMZ by propidium iodide staining based flow cytometry analysis (reference value: 58.8%); format: functional, U-87MG ATCC
U-87 MG [6] = test: Induction of apoptosis in human U-87 MG cells assessed as G2/M phase cells at 25 uM incubated for 24 hrs in presence of TMZ by propidium iodide staining based flow cytometry analysis (reference value: 11.9%); format: functional, U-87MG ATCC
U-87 MG [7] = test: Antitumor activity against human U-87 MG cells xenografted in BALB/c nude mouse assessed as tumor growth retardation at 40 mg/kg, po administered every other day for 18 days; format: functional, organism-based; conditions: U-87MG ATCC, time 18.0 day
U-87 MG [8] = test: Induction of apoptosis in human U-87 MG cells assessed as G0/G1 phase cells at 25 uM incubated for 24 hrs by propidium iodide staining based flow cytometry analysis (reference value: 58.8%); format: functional, U-87MG ATCC
U-87 MG [9] = test: Cytotoxicity against human U-87 MG cells incubated for 48 hrs by CCK8 assay; format: functional, cell-based, U-87MG ATCC
U-87 MG [10] = test: Induction of apoptosis in human U-87 MG cells assessed as G2/M phase cells at 25 uM incubated for 24 hrs by propidium iodide staining based flow cytometry analysis (reference value: 11.9%); format: functional, U-87MG ATCC

O=C1OC(=O)C2C3CCC(O3)C12 (stereo unspecified)
IC50 [1]: 3000 nM

O=C(O)[C@@H]1[C@H](C(=O)N2CCC2)[C@H]2CC[C@@H]1O2
remaining at 4 h [2]: 33.8%

O=C(O)[C@H]1[C@@H](C(=O)N2Cc3ccccc3C2)[C@@H]2CC[C@H]1O2
remaining at 4 h [2]: 46.4%

Cn1nnc2c(C(N)=O)ncn2c1=O [TEMOZOLOMIDE]
Activity (U-87 MG [3]): 69.6%
Activity (U-87 MG [4]): 31.5%
Activity (U-87 MG [5]): 37.7%
Activity (U-87 MG [6]): 7.4%
Activity (U-87 MG [7]): Active
Activity (U-87 MG [8]): 54.5%
IC50 (U-87 MG [9]): > 200000 nM
Activity (U-87 MG [10]): 13.5%

C/C=C1/C(=O)N[C@@H](C(=O)O)[C@H](C)C(=O)N[C@@H](CCCNC(=N)N)C(=O)N[C@@H](/C=C/C(C)=C/[C@H](C)[C@H](Cc2ccccc2)OC)[C@H](C)C(=O)N[C@@H](C(=O)O)CCC(=O)N1C [NODULARIN]
IC50 [1]: 0.3 nM

O=C(NC1CCCC1)[C@@H]1[C@H](C(=O)O)[C@H]2CC[C@@H]1O2
remaining at 4 h [2]: 10.2%

C[C@@]12C(=O)OC(=O)[C@]1(C)[C@H]1CC[C@@H]2O1 [CANTHARIDIN]
IC50 [1]: 160 nM

C=C1[C@@H](O)[C@@H]2O[C@]3(CC[C@H](/C=C/[C@@H](C)[C@@H]4CC(C)=C[C@@]5(O[C@H](C[C@@](C)(O)C(=O)O)CC[C@H]5O)O4)O3)CC[C@H]2O[C@@H]1[C@@H](O)C[C@H](C)[C@H]1O[C@@]2(CCCCO2)CC[C@H]1C [OKADAIC ACID]
IC50 [1]: 0.1 nM

O=C(Nc1ccccc1)[C@@H]1[C@H](C(=O)O)[C@H]2CC[C@@H]1O2
remaining at 4 h [2]: 74.5%
